Source: patent US8664277B2, “Compounds and methods for PKCθ inhibition” (Complegen Partners, LLC, priority 2008, dated 2014)
pEC50, pIC50: −log10 of the molar value. Where two headings read alike, the source gives them in different places.

How the values were obtained:
Human PKC theta = molecular target: T1, Human PKC theta (Homo sapiens, UniProt Q04759); experiment: XenoGene yeast growth inhibition, yeast containing human PKC theta gene; format: cell-based
T1 construct: expressed in transfected cells; host or cells: yeast (XenoGene strain)
Source text: Using the XenoGene™ system described within, compounds inhibiting PKCθ are identified. The XenoGene™ system is a technology developed and patented by CompleGen wherein genes (“XenoGenes”™) from a target organism (e.g. humans) are used to functionally replace essential genes of a simple organism (yeast). These modified yeast are used to select compounds that act specifically on the protein encoded by the target gene and eliminate compounds that are not specific. […]

PKC epsilon = molecular target: T2, PKC epsilon (Homo sapiens, UniProt Q02156); experiment: XenoGene counter-screen, PKC epsilon; format: cell-based; conditions: inverse of (PKC-theta IC50)/(PKC-X IC50)
T2 construct: expressed in transfected cells; host or cells: yeast (XenoGene strain)
T2 sequence (Q02156 1-737): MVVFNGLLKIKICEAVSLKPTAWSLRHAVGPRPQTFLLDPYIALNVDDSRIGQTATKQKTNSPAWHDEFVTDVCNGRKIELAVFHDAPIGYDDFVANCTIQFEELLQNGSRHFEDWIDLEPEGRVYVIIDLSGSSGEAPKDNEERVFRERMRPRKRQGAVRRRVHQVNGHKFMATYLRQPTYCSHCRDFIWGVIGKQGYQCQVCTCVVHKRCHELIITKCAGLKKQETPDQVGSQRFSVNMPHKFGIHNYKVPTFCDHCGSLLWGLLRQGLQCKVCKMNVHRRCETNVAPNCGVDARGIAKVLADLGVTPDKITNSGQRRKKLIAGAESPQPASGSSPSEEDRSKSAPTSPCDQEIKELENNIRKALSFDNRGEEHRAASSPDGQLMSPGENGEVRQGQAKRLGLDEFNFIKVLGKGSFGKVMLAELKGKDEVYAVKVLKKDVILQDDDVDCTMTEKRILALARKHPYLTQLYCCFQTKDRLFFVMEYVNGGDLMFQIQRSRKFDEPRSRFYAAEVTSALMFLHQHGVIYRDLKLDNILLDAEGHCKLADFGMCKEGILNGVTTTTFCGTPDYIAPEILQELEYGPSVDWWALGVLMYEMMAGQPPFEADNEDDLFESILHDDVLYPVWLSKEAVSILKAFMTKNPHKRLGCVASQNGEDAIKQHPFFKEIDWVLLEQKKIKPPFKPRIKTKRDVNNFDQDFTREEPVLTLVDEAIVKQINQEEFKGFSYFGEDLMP
Method: (§1) To identify compounds as being selective PKC theta inhibitors the IC50 values are determined against XenoGene™ strains containing other XenoGenes™, especially certain other PKC genes (see Example 10).
(§2) Human PKC theta gene (cDNA) was used to generate a XenoGene™ system as previously described (U.S. Pat. Nos. 6,998,261, 6,232,074), which was used to screen compounds in a chemical compound library. XenoGene™ systems used as counter-screens were constructed similarly using the gene for the appropriate counter-screen target. In particular, human genes (cDNA) encoding PKC delta, PKC eta and PKC epsilon were used to generate XenoGene™ systems.

PKC delta = molecular target: T3, PKC delta (Homo sapiens, UniProt Q05655); experiment: XenoGene counter-screen, PKC delta; format: cell-based; conditions: inverse of (PKC-theta IC50)/(PKC-X IC50)
T3 construct: expressed in transfected cells; host or cells: yeast (XenoGene strain)
Method: as §1, §2

PKC eta = molecular target: T4, PKC eta (Homo sapiens, UniProt P24723); experiment: XenoGene counter-screen, PKC eta; format: cell-based; conditions: inverse of (PKC-theta IC50)/(PKC-X IC50)
T4 construct: expressed in transfected cells; host or cells: yeast (XenoGene strain)
Method: as §1, §2

yeast PKC1 = molecular target: T5, yeast PKC1 (Saccharomyces cerevisiae, UniProt P24583); experiment: XenoGene counter-screen, yeast PKC1; format: cell-based; conditions: inverse of (PKC-theta IC50)/(PKC-X IC50)
T5 construct: endogenous in cells; host or cells: yeast control strain
T5 sequence (P24583 1-1151): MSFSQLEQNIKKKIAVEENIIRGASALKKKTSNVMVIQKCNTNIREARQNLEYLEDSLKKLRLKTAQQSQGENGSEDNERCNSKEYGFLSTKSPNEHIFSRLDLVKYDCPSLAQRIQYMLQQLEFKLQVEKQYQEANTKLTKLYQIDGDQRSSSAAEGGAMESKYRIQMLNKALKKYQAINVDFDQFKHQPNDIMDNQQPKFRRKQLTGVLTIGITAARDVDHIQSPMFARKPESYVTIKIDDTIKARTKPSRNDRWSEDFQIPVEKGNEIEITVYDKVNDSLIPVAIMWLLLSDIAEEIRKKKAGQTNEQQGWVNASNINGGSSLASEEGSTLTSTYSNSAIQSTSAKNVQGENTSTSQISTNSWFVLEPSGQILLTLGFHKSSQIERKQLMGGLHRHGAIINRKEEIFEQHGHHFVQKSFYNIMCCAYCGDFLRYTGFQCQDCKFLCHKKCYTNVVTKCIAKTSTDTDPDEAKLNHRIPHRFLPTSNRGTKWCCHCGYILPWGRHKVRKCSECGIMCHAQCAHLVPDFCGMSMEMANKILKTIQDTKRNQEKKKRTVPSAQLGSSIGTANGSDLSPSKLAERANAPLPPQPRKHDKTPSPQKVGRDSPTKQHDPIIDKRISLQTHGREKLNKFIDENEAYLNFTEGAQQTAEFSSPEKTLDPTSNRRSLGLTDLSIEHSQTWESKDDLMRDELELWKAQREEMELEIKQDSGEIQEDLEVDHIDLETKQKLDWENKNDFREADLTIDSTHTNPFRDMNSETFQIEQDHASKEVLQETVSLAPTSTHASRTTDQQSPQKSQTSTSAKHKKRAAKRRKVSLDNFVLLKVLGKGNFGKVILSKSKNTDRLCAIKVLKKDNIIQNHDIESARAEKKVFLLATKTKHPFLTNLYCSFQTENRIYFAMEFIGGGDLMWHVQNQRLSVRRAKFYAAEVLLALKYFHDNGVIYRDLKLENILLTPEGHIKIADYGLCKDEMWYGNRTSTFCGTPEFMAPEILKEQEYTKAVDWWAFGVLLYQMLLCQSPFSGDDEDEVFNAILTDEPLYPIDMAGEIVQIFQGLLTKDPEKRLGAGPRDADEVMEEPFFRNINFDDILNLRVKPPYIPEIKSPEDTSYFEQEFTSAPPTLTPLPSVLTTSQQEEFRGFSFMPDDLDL
Source text: Using the XenoGene™ system described within, compounds inhibiting PKCθ are identified. The XenoGene™ system is a technology developed and patented by CompleGen wherein genes (“XenoGenes”™) from a target organism (e.g. humans) are used to functionally replace essential genes of a simple organism (yeast). These modified yeast are used to select compounds that act specifically on the protein encoded by the target gene and eliminate compounds that are not specific. XenoGene™ constructs provide a very high throughput screening system that allows identification of compounds active on the function of the target protein in a cell under physiological conditions on “first-pass” screening and further, to selectively counter-screen against 200 human targets or more if necessary. […] The relative potencies of the active compounds is determined by titration to find the concentration of compound providing 50% inhibition of growth (IC50) against the yeast containing the target gene (Table 1).
as §2

T cell lymphomas = experiment: Inhibition of T cell lymphomas, live cells counted by flow cytometry; format: cell-based, mouse; conditions: for pEC50: Mus musculus, T-cell, 96 h, 4 days growth
Source text: The compounds of the present invention can also be screened for the ability to inhibit T cell lymphomas. Assays for inhibiting T cell lymphomas are known to one of skill in the art. In some embodiments, the assay involves mice generated from the nucleus of a mature T cell with a “fixed” rearranged T cell receptor. These T cells spontaneously generate T cell lymphomas which resemble human T cell lymphomas. T cell lymphomas isolated from the mice can then be treated with compounds of the present invention. After sufficient time to allow for cell growth, live cells are counted by flow cytometry (Serwold et al. (2007) J. Immunol. 179; 928). One of skill in the art will appreciate that other assays are useful in the present invention.
(§3) Mice generated from the nucleus of a mature T cell (see Hochedlinger K, Jaenisch R. (2002) Nature 415; 1035) with a “fixed” rearranged T cell receptor spontaneously generate T cell lymphomas which resemble human T cell lymphomas. Several T cell lymphomas (1-4) isolated from these mice were treated with compound 471. All T cell lymphomas were inhibited by compound 471. A B-cell hybridoma served as a non-T cell control and was not affected by the compound. Cells were seeded into 96-well plates (5,000 cells/well) in the presence of compound 471 at concentrations ranging from 0.1 to 5 uM. After 4 days growth (37° C., 5% CO2), live cells were counted by flow cytometry (Serwold et al. (2007) J. Immunol. 179; 928)

B-cell hybridoma = B-cell hybridoma non-T cell control, live cells counted by flow cytometry; format: cell-based
Method: as §3

Mouse splenic T cells = experiment: Inhibition of naive T cell activation (anti-CD3/anti-CD28), 3H-TdR incorporation; format: cell-based; conditions: three days, control without compound 31571
Method: Inhibition of naïve T cell activation by compound 471. Mouse splenic T cells were isolated from unimmunized mice by magnetic negative selection (Miltenyi®, Untouched T Cell Isolation Kit) or FACS using anti-CD3-PE-Cy7. Isolated T cells were incubated in microtiter wells coated with anti-CD3 monoclonal antibody and soluble anti-CD28 monoclonal antibody, 10^5 cells/100 μl in 10% FBS-RPMI as above, for three days. Proliferation was measured by ^3H-TdR incorporation.

[1] = 50% inhibition of growth of yeast containing the target gene, read-out: IC50
[2] = XenoGene system, read-out: PKC-theta IC50

T4 sequence (P24723 whole entry): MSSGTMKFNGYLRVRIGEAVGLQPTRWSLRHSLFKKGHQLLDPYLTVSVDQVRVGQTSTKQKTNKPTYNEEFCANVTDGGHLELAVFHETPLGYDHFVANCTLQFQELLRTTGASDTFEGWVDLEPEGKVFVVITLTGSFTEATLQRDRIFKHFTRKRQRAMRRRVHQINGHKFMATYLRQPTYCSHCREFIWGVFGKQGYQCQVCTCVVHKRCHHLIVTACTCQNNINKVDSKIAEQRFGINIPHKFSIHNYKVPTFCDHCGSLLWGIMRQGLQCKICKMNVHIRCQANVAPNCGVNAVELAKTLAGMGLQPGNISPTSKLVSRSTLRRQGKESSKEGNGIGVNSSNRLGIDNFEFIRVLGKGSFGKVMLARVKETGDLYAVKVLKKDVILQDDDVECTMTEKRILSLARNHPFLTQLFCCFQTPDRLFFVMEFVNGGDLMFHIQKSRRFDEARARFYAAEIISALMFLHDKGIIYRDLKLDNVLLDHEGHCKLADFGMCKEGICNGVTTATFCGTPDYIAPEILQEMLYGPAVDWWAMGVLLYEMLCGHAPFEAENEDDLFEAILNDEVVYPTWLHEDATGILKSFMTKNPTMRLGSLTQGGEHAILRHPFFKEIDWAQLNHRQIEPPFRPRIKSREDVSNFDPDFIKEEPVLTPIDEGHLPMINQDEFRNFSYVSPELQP
T1 sequence (Q04759 whole entry): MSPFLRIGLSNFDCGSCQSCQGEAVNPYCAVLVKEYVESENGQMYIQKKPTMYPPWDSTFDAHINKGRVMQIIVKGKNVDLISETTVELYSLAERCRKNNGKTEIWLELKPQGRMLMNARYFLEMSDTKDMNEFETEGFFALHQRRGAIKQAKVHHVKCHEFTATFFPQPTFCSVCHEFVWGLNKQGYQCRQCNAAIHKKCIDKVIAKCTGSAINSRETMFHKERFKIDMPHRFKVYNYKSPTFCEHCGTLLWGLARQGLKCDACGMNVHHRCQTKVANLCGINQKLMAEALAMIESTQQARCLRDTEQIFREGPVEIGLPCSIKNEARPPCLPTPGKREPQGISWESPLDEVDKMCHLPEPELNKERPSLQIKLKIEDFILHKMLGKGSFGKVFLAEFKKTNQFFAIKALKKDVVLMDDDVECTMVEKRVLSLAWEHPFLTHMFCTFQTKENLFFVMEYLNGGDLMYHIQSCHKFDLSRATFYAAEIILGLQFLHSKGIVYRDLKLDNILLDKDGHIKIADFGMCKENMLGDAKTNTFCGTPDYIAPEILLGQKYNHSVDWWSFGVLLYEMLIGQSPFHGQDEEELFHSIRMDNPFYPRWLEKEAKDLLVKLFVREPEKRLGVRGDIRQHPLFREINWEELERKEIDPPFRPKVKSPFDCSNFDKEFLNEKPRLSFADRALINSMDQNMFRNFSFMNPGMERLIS
T3 sequence (Q05655 whole entry): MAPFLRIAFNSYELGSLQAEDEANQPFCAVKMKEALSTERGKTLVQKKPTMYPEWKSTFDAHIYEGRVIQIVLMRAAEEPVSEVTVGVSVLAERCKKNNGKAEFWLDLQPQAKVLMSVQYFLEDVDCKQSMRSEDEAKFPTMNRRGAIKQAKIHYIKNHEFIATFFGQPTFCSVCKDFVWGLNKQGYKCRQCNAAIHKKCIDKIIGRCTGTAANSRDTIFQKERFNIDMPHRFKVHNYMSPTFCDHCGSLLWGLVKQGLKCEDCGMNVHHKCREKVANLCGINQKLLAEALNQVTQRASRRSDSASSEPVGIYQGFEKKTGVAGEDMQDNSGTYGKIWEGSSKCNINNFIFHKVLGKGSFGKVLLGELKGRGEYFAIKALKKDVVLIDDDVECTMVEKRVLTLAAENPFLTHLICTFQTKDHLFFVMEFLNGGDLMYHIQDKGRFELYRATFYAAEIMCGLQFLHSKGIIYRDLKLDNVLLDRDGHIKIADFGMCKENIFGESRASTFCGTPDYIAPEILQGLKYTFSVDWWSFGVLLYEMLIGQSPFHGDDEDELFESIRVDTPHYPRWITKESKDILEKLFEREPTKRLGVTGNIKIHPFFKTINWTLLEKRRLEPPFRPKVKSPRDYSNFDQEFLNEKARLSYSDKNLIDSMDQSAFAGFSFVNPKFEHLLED

Nc1ccc([S+]([O-])c2ccc(C(F)(F)F)cc2)cc1 (stereo not drawn) [Compound 751]
pIC50 (Human PKC theta; [1]): < 5.00

Cc1ccc(Oc2ccc(N)cc2)cc1 [Compound 508]
pIC50 (Human PKC theta; [1]): 5.00 to 6.00

CCC(C)(C)c1ccc(Oc2ccc(N)cc2)cc1 [Compound 730]
pIC50 (Human PKC theta; [1]): > 6.00

Cc1cc(Oc2ccc(N)cc2)ccc1Cl [Compound 505]
Selectivity for PKC-theta v. PKC-epsilon (PKC epsilon): 11 | pIC50 (Human PKC theta; [1]): > 6.00 | pIC50 (Human PKC theta; [2]): 6.40 | Selectivity for PKC-theta v. PKC-delta (PKC delta): 13 | Selectivity for PKC-theta v. PKC-eta (PKC eta): 3.0

CC(C)(C)c1ccc(Oc2ccc(N)nc2)cc1 [Compound 486]
pIC50 (Human PKC theta; [1]): < 5.00

Nc1ccc(Oc2ccc(OC(F)(F)F)cc2)cc1 [Compound 510]
pIC50 (Human PKC theta; [1]): > 6.00

CC(C)(C)c1ccc(Sc2ccc(N)cc2)cc1 [Compound 740]
Selectivity for PKC-theta v. PKC-epsilon (PKC epsilon): 12 | Selectivity for PKC-theta v. yeast PKC1 (yeast PKC1): 80 | pIC50 (Human PKC theta; [1]): > 6.00 | pIC50 (Human PKC theta; [2]): 7.30 | Selectivity for PKC-theta v. PKC-delta (PKC delta): 26 | Selectivity for PKC-theta v. PKC-eta (PKC eta): 3.0

CC(C)c1ccc(Oc2ccc(N)cc2)cc1 [Compound 742]
pIC50 (Human PKC theta; [1]): > 6.00

CCCc1ccc(Oc2ccc(N)cc2)cc1 [Compound 745]
pIC50 (Human PKC theta; [1]): > 6.00

CC(C)(C)c1ccc(S(=O)(=O)c2ccc(N)cc2)cc1 [Compound 750]
pIC50 (Human PKC theta; [1]): < 5.00

CC(C)(C)c1ccc(Oc2ccc(N)cc2)cc1 [Compound 471]
Selectivity for PKC-theta v. PKC-epsilon (PKC epsilon): 1.1 | pEC50 (T cell lymphomas; Lymphoma 1): 6.15 | pEC50 (T cell lymphomas; Lymphoma 2): 6.70 | pEC50 (T cell lymphomas; Lymphoma 4): > 7.00 | pEC50 (T cell lymphomas; Lymphoma 5): 6.15 | Inhibition of T cell lymphomas (T cell lymphomas; all T cell lymphomas, 0.1 to 5 uM): inhibited | Selectivity for PKC-theta v. yeast PKC1 (yeast PKC1): 28 | pEC50 (B-cell hybridoma; 96 h, B-cell Hybridoma, 4 days growth): < 5.30 | Effect on B-cell hybridoma (B-cell hybridoma; non-T cell control, 0.1 to 5 uM): not affected | pIC50 (Human PKC theta; [1]): > 6.00 | pIC50 (Human PKC theta; [2]): 6.85 | Selectivity for PKC-theta v. PKC-delta (PKC delta): 2.5 | Selectivity for PKC-theta v. PKC-eta (PKC eta): 0.36 | 3H-TdR cpm (Mouse splenic T cells; 0.5 uM compound): 21928 cpm | 3H-TdR cpm (Mouse splenic T cells; 1.0 uM compound): 880 cpm

Nc1ccc(Oc2ccccc2)cc1 [Compound 500]
pIC50 (Human PKC theta; [1]): < 5.00

Cc1cc(Oc2ccc(N)cc2)ccc1Cl [Compound 507]
pIC50 (Human PKC theta; [1]): 5.00 to 6.00
